Measurements taken from patent US12459922B2 (Gilead Sciences, Inc., priority 2022, dated 2025).

These molecules were tested on endogenous cellular STAT1 (phosphorylated at Tyr701) in NCI-H1373 cells (assay: Phospho-STAT1 (Tyr701) LANCE Ultra TR-FRET Detection Assay). Conditions: Homo sapiens, NCI-H1373, 48 h, phospho-STAT1 (Tyr701) induction, read-out: NH1373 pSTAT1 EC50.
Assay type: cell-based

Question: `CC[C@@H](CCCn1ccc2cc(-c3ncc(C(F)F)c(N)n3)c(F)c(F)c2c1=O)Nc1cn[nH]c(=O)c1C(F)(F)F` [Example 356, (S)-6-(4-amino-5-(difluoromethyl)pyrimidin-2-yl)-7,8-difluoro-2-(4-((6-oxo-5-(trifluoromethyl)-1,6-dihydropyridazin-4-yl)amino)hexyl)isoquinolin-1(2H)-one] was tested. Which EC50 did it give?
Answer: Its EC50 is 4.9 nM.

Question: With `C[C@@H](CCCn1ccc2cc(-c3nc(N)c4c(n3)COC4)c(F)cc2c1=O)Nc1cn[nH]c(=O)c1C(F)(F)F` [Example 357, (S)-6-(4-amino-5,7-dihydrofuro[3,4-d]pyrimidin-2-yl)-7-fluoro-2-(4-((6-oxo-5-(trifluoromethyl)-1,6-dihydropyridazin-4-yl)amino)pentyl)isoquinolin-1(2H)-one] as the molecule, how does the EC50 read?
Answer: The EC50 was 143 nM.

Question: With `C[C@@H](CCCn1ccc2cc(-c3nc(N)c4c(n3)C(C)(C)OC4)c(F)cc2c1=O)Nc1cn[nH]c(=O)c1C(F)(F)F` [Example 358, (S)-6-(4-amino-7,7-dimethyl-5,7-dihydrofuro[3,4-d]pyrimidin-2-yl)-7-fluoro-2-(4-((6-oxo-5-(trifluoromethyl)-1,6-dihydropyridazin-4-yl)amino)pentyl)isoquinolin-1(2H)-one] as the molecule, how does the EC50 read?
Answer: The EC50 was 1330 nM.

Question: Which EC50 does the source give for `CC[C@@H](CCCn1ccc2cc(-c3ncc(Cl)c(N)n3)c(F)c(F)c2c1=O)Nc1cn[nH]c(=O)c1C(F)(F)F` [Example 359, (S)-6-(4-amino-5-chloropyrimidin-2-yl)-7,8-difluoro-2-(4-((6-oxo-5-(trifluoromethyl)-1,6-dihydropyridazin-4-yl)amino)hexyl)isoquinolin-1(2H)-one] here?
Answer: Its EC50 is 1.15 nM.

Question: How did the EC50 turn out when `CC[C@@H](CCCn1ccc2cc(-c3ncc(OC(F)F)c(N)n3)c(F)cc2c1=O)Nc1cn[nH]c(=O)c1C(F)(F)F` [Example 360, (S)-6-(4-amino-5-(difluoromethoxy)pyrimidin-2-yl)-7-fluoro-2-(4-((6-oxo-5-(trifluoromethyl)-1,6-dihydropyridazin-4-yl)amino)hexyl)isoquinolin-1(2H)-one] was run?
Answer: The EC50 was 12.7 nM.

Question: For `CC[C@@H](CCCn1ccc2cc(-c3ncc(OC(F)F)c(N)n3)c(F)c(F)c2c1=O)Nc1cn[nH]c(=O)c1C(F)(F)F` [Example 361, (S)-6-(4-amino-5-(difluoromethoxy)pyrimidin-2-yl)-7,8-difluoro-2-(4-((6-oxo-5-(trifluoromethyl)-1,6-dihydropyridazin-4-yl)amino)hexyl)isoquinolin-1(2H)-one], which EC50 is on record?
Answer: The EC50 was 10.9 nM.

Question: `CC[C@@H](CCCn1ccc2cc(-c3cnc(C(F)(F)F)c(N)n3)c(F)c(F)c2c1=O)Nc1cn[nH]c(=O)c1C(F)(F)F` [Example 362, (S)-6-(6-amino-5-(trifluoromethyl)pyrazin-2-yl)-7,8-difluoro-2-(4-((6-oxo-5-(trifluoromethyl)-1,6-dihydropyridazin-4-yl)amino)hexyl)isoquinolin-1(2H)-one] was tested. Which EC50 did it give?
Answer: Its EC50 is 15.7 nM.

Question: With `C[C@@H](CCCn1ccc2cc(-c3nc(N)c4ccccc4n3)c(F)cc2c1=O)Nc1cn[nH]c(=O)c1C(F)(F)F` [Example 363, (S)-6-(4-aminoquinazolin-2-yl)-7-fluoro-2-(4-((6-oxo-5-(trifluoromethyl)-1,6-dihydropyridazin-4-yl)amino)pentyl)isoquinolin-1(2H)-one] as the molecule, how does the EC50 read?
Answer: Its EC50 is 3.28 nM.

Question: How did the EC50 turn out when `CC[C@@H](CCCn1cnc2cc(-c3ncc(OC(F)F)c(N)n3)c(F)cc2c1=O)Nc1cn[nH]c(=O)c1C(F)(F)F` [Example 364, (S)-7-(4-amino-5-(difluoromethoxy)pyrimidin-2-yl)-6-fluoro-3-(4-((6-oxo-5-(trifluoromethyl)-1,6-dihydropyridazin-4-yl)amino)hexyl)quinazolin-4(3H)-one] was run?
Answer: The EC50 was 96.4 nM.

Question: Which EC50 does the source give for `C[C@@H](CCCn1ccc2cc(-c3ncnc(N)n3)c(F)cc2c1=O)Nc1cn[nH]c(=O)c1C(F)(F)F` [Example 365, (S)-6-(4-amino-1,3,5-triazin-2-yl)-7-fluoro-2-(4-((6-oxo-5-(trifluoromethyl)-1,6-dihydropyridazin-4-yl)amino)pentyl)isoquinolin-1(2H)-one] here?
Answer: The EC50 was 55.8 nM.

Question: Which EC50 does the source give for `Cc1nc(N)nc(-c2cc3ccn(CCC[C@H](C)Nc4cn[nH]c(=O)c4C(F)(F)F)c(=O)c3cc2F)n1` [Example 366, (S)-6-(4-amino-6-methyl-1,3,5-triazin-2-yl)-7-fluoro-2-(4-((6-oxo-5-(trifluoromethyl)-1,6-dihydropyridazin-4-yl)amino)pentyl)isoquinolin-1(2H)-one] here?
Answer: The EC50 was 92.5 nM.

Question: Which EC50 does the source give for `C[C@@H](CCCn1cnc2cc(-c3ncc(OC(F)F)c(N)n3)c(F)cc2c1=O)Nc1cn[nH]c(=O)c1C(F)(F)F` [Example 367, (S)-7-(4-amino-5-(difluoromethoxy)pyrimidin-2-yl)-6-fluoro-3-(4-((6-oxo-5-(trifluoromethyl)-1,6-dihydropyridazin-4-yl)amino)pentyl)quinazolin-4(3H)-one] here?
Answer: The EC50 was 51.1 nM.

Question: How did the EC50 turn out when `Nc1nc(-c2cc3ccn(CCC[C@H](COC(F)F)Nc4cn[nH]c(=O)c4C(F)(F)F)c(=O)c3cc2F)ncc1OC(F)F` [Example 369, (R)-6-(4-amino-5-(difluoromethoxy)pyrimidin-2-yl)-2-(5-(difluoromethoxy)-4-((6-oxo-5-(trifluoromethyl)-1,6-dihydropyridazin-4-yl)amino)pentyl)-7-fluoroisoquinolin-1(2H)-one] was run?
Answer: The EC50 was 7.35 nM.

Question: Which EC50 does the source give for `COc1cnc(-c2cc3ccn(CCC[C@H](COC(F)F)Nc4cn[nH]c(=O)c4C(F)(F)F)c(=O)c3cc2F)nc1N` [Example 370, (R)-6-(4-amino-5-methoxypyrimidin-2-yl)-2-(5-(difluoromethoxy)-4-((6-oxo-5-(trifluoromethyl)-1,6-dihydropyridazin-4-yl)amino)pentyl)-7-fluoroisoquinolin-1(2H)-one] here?
Answer: The EC50 was 8.33 nM.

Question: Which EC50 does the source give for `O=c1[nH]ncc(N[C@H](CCCn2ccc3cc(-c4cnc(OC(F)F)cn4)c(F)cc3c2=O)COC(F)F)c1C(F)(F)F` [Example 371, (R)-2-(5-(difluoromethoxy)-4-((6-oxo-5-(trifluoromethyl)-1,6-dihydropyridazin-4-yl)amino)pentyl)-6-(5-(difluoromethoxy)pyrazin-2-yl)-7-fluoroisoquinolin-1(2H)-one] here?
Answer: Its EC50 is 6.78 nM.

Question: How did the EC50 turn out when `O=c1[nH]ncc(N[C@H](CCCn2cnc3cc(-c4cnc(C(F)F)cn4)c(F)cc3c2=O)COC(F)F)c1C(F)(F)F` [Example 372, (R)-3-(5-(difluoromethoxy)-4-((6-oxo-5-(trifluoromethyl)-1,6-dihydropyridazin-4-yl)amino)pentyl)-7-(5-(difluoromethyl)pyrazin-2-yl)-6-fluoroquinazolin-4(3H)-one] was run?
Answer: The EC50 was 7.13 nM.

Question: Which EC50 does the source give for `O=c1[nH]ncc(N[C@H](CCCn2cnc3cc(-c4cnc(OC(F)F)cn4)c(F)cc3c2=O)COC(F)F)c1C(F)(F)F` [Example 373, (R)-3-(5-(difluoromethoxy)-4-((6-oxo-5-(trifluoromethyl)-1,6-dihydropyridazin-4-yl)amino)pentyl)-7-(5-(difluoromethoxy)pyrazin-2-yl)-6-fluoroquinazolin-4(3H)-one] here?
Answer: Its EC50 is 16.6 nM.

Question: `Nc1nc(-c2cc3ncn(CCC[C@H](COC(F)F)Nc4cn[nH]c(=O)c4C(F)(F)F)c(=O)c3cc2F)ncc1OC(F)F` [Example 374, (R)-7-(4-amino-5-(difluoromethoxy)pyrimidin-2-yl)-3-(5-(difluoromethoxy)-4-((6-oxo-5-(trifluoromethyl)-1,6-dihydropyridazin-4-yl)amino)pentyl)-6-fluoroquinazolin-4(3H)-one] was tested. Which EC50 did it give?
Answer: The EC50 was 44.8 nM.

Question: With `O=c1[nH]ncc(N[C@H](CCCn2ccc3cc(-c4ncc(C(F)(F)F)cn4)c(F)c(F)c3c2=O)COC(F)F)c1C(F)(F)F` [Example 375, (R)-2-(5-(difluoromethoxy)-4-((6-oxo-5-(trifluoromethyl)-1,6-dihydropyridazin-4-yl)amino)pentyl)-7,8-difluoro-6-(5-(trifluoromethyl)pyrimidin-2-yl)isoquinolin-1(2H)-one] as the molecule, how does the EC50 read?
Answer: Its EC50 is 3.84 nM.

Question: Which EC50 does the source give for `O=c1[nH]ncc(N[C@H](CCCn2cnc3cc(-c4ncc(C(F)(F)F)cn4)c(F)cc3c2=O)COC(F)F)c1C(F)(F)F` [Example 382, (R)-3-(5-(difluoromethoxy)-4-((6-oxo-5-(trifluoromethyl)-1,6-dihydropyridazin-4-yl)amino)pentyl)-6-fluoro-7-(5-(trifluoromethyl)pyrimidin-2-yl)quinazolin-4(3H)-one] here?
Answer: The EC50 was 2.17 nM.

Question: With `Nc1nc(-c2cc3ncn(CCC[C@H](COC(F)F)Nc4cn[nH]c(=O)c4C(F)(F)F)c(=O)c3cc2F)ncc1C(F)F` [Example 383, (R)-7-(4-amino-5-(difluoromethyl)pyrimidin-2-yl)-3-(5-(difluoromethoxy)-4-((6-oxo-5-(trifluoromethyl)-1,6-dihydropyridazin-4-yl)amino)pentyl)-6-fluoroquinazolin-4(3H)-one] as the molecule, how does the EC50 read?
Answer: The EC50 was 18.5 nM.

Question: `O=c1[nH]ncc(N[C@H](CCCn2cnc3cc(-c4ncc(C(F)F)cn4)c(F)cc3c2=O)COC(F)F)c1C(F)(F)F` [Example 384, (R)-3-(5-(difluoromethoxy)-4-((6-oxo-5-(trifluoromethyl)-1,6-dihydropyridazin-4-yl)amino)pentyl)-7-(5-(difluoromethyl)pyrimidin-2-yl)-6-fluoroquinazolin-4(3H)-one] was tested. Which EC50 did it give?
Answer: The EC50 was 2.41 nM.

Question: For `Nc1nc(-c2cc3ncn(CCC[C@H](COC(F)F)Nc4cn[nH]c(=O)c4C(F)(F)F)c(=O)c3cc2F)ncc1C(F)(F)F` [Example 385, (R)-7-(4-amino-5-(trifluoromethyl)pyrimidin-2-yl)-3-(5-(difluoromethoxy)-4-((6-oxo-5-(trifluoromethyl)-1,6-dihydropyridazin-4-yl)amino)pentyl)-6-fluoroquinazolin-4(3H)-one], which EC50 is on record?
Answer: Its EC50 is 13.3 nM.

Question: Which EC50 does the source give for `O=c1[nH]ncc(N[C@H](CCCn2ccc3nc(-c4ccc(C(F)(F)F)cn4)ccc3c2=O)COC(F)F)c1C(F)(F)F` [Example 386, (R)-6-(5-(difluoromethoxy)-4-((6-oxo-5-(trifluoromethyl)-1,6-dihydropyridazin-4-yl)amino)pentyl)-2-(5-(trifluoromethyl)pyridin-2-yl)-1,6-naphthyridin-5(6H)-one] here?
Answer: The EC50 was 2.96 nM.

Question: For `Nc1nc(-c2cc3ccn(CCC[C@H](COC(F)F)Nc4cn[nH]c(=O)c4C(F)(F)F)c(=O)c3c(F)c2F)ncc1C(F)F` [Example 387, (R)-6-(4-amino-5-(difluoromethyl)pyrimidin-2-yl)-2-(5-(difluoromethoxy)-4-((6-oxo-5-(trifluoromethyl)-1,6-dihydropyridazin-4-yl)amino)pentyl)-7,8-difluoroisoquinolin-1(2H)-one], which EC50 is on record?
Answer: The EC50 was 10.4 nM.
